Read-outs that look alike come from different tables or passages of the source.
How the values were obtained:
mPTPB = molecular target: T1, mPTPB (Mycobacterium tuberculosis, UniProt I6WXK4); test: biochemical; format: biochemical; conditions: for In % @ 1 μM (mPTPB): library 13 screened in situ
T1 construct: The full-length mPTPB with a N-terminal His6-tag was expressed and purified; His6 (N); made in house; host or cells: E. coli BL21/DE3 (pET28b-mPTPB)
T1 sequence (I6WXK4 1-276): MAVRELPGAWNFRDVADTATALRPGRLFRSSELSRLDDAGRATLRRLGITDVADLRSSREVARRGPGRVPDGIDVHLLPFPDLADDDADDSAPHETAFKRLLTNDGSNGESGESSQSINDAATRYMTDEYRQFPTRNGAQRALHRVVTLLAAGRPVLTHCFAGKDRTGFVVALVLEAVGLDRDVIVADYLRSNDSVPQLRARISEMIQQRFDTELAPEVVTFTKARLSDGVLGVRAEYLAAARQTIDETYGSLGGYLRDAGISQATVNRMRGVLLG

Lyp = molecular target: T2, Lyp (Homo sapiens, UniProt Q9Y2R2); test: biochemical; format: biochemical
T2 sequence (Q9Y2R2 1-807): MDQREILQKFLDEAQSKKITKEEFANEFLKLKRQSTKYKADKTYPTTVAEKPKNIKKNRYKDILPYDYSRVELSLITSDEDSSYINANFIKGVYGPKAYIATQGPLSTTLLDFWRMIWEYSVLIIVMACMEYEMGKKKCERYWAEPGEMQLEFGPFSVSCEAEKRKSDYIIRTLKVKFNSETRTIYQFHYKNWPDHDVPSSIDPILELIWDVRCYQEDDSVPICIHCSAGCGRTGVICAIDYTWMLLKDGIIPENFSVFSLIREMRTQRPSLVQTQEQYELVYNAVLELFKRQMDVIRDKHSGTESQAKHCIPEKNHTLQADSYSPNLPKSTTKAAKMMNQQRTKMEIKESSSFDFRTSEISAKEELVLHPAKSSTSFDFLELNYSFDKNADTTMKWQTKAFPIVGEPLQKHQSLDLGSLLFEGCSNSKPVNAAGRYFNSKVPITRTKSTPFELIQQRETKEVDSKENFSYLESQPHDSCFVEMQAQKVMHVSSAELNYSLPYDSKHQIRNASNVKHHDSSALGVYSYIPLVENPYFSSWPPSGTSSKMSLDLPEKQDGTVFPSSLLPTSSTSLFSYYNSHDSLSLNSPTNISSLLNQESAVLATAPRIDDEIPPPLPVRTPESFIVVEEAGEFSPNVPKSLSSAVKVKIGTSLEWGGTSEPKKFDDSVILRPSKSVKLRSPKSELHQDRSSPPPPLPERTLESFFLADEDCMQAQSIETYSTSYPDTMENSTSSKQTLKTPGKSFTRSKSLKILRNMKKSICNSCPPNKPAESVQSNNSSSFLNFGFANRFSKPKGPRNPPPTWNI

[1] = pNPP substrate, pH 7.0, 25° C., read-out: IC50 (μM) against mPTPB

| SMILES | IC50 (mPTPB; [1]) [µM] | also measured |
| --- | --- | --- |
| Cn1c(-c2ccccc2C(F)(F)F)c(C#Cc2ccc(Oc3ccccc3)cc2)c2cc(C(=O)O)c(O)cc21 [Compound 209d, 6-hydroxy-1-methyl-3-((4-phenoxyphenyl)ethynyl)-2-(2-(trifluoromethyl)phenyl)-1H-indole-5-carboxylic acid] | 0.46 ± 0.06 |  |
| Cn1c(-c2cccc(F)c2)c(I)c2cc(C(=O)O)c(O)cc21 [Compound 207h, 2-(3-fluorophenyl)-6-hydroxy-3-iodo-1-methyl-1H-indole-5-carboxylic acid] | 11 ± 1 |  |
| Cn1c(-c2ccccc2)c(I)c2cc(C(=O)O)c(O)cc21 [Compound 207g, 6-hydroxy-3-iodo-1-methyl-2-phenyl-1H-indole-5-carboxylic acid] | 11 ± 1 |  |
| O=C(O)c1cc2c(C=Cc3cc(F)cc(F)c3)c(-c3ccccc3)oc2cc1O [43 (L01Z25)] | 1.2 |  |
| Cn1c(-c2ccc(OC(F)(F)F)cc2)c(I)c2cc(C(=O)O)c(O)cc21 [Compound 207e, 6-hydroxy-3-iodo-1-methyl-2-(4-(trifluoromethoxy)phenyl)-1H-indole-5-carboxylic acid] | 5.5 ± 0.5 |  |
| Cn1c(-c2ccccc2C(F)(F)F)c(C#Cc2cccc(C(F)(F)F)c2)c2cc(C(=O)O)c(O)cc21 [Compound 209b, 6-hydroxy-1-methyl-2-(2-(trifluoromethyl)phenyl)-3-((3-(trifluoromethyl)phenyl)ethynyl)-1H-indole-5-carboxylic acid] | 0.23 ± 0.04 |  |
| Cn1c(-c2ccccc2C(F)(F)F)c(C#Cc2ccc(OC(F)(F)F)cc2)c2cc(C(=O)O)c(O)cc21 [Compound 209f, 6-hydroxy-1-methyl-3-((4-(trifluoromethoxy)phenyl)ethynyl)-2-(2-(trifluoromethyl)phenyl)-1H-indole-5-carboxylic acid] | 0.85 ± 0.2 |  |
| O=C(O)c1cc2c(C#Cc3cccc(Cl)c3)c(-c3ccc(OC(F)(F)F)cc3)oc2cc1O [36 (L73Z01)] | 0.082 |  |
| O=C(O)COc1cccc(C#Cc2c(-c3ccc(OC(F)(F)F)cc3)oc3cc(O)c(C(=O)O)cc23)c1 [39 (L73Z05)] | 0.19 |  |
| Cn1c(-c2cccc(O)c2)c(I)c2cc(C(=O)O)c(O)cc21 [Compound 207k, 6-hydroxy-2-(3-hydroxyphenyl)-3-iodo-1-methyl-1H-indole-5-carboxylic acid] | 18 ± 1 |  |
| O=C(O)c1cc2c(C#Cc3ccsc3)c(-c3ccc(OC(F)(F)F)cc3)oc2cc1O [38 (L73Z03)] | 0.35 |  |
| Cn1c(C2CCCCC2)c(I)c2cc(C(=O)O)c(O)cc21 [Compound 207d, 2-cyclohexyl-6-hydroxy-3-iodo-1-methyl-1H-indole-5-carboxylic acid] | 3.6 ± 0.1 |  |
| Cn1c(-c2ccc(F)cc2)c(I)c2cc(C(=O)O)c(O)cc21 [Compound 207i, 2-(4-fluorophenyl)-6-hydroxy-3-iodo-1-methyl-1H-indole-5-carboxylic acid] | 12 ± 2 |  |
| O=C(O)COc1ccc(-c2oc3cc(O)c(C(=O)O)cc3c2C#Cc2cccc(Cl)c2)cc1 [50 (Core 75)] | 0.101 | IC50 (Lyp): 7.6 ± 0.4 µM; loss of activity compare with compound 133 for Lyp (Lyp): 7.8 fold |
| Cn1c(-c2ccccc2C(F)(F)F)c(C(=O)CCNC(=O)c2cccc(I)c2)c2cc(C(=O)O)c(O)cc21 [Compound 213b, 6-hydroxy-3-(3-(3-iodobenzamido)propanoyl)-1-methyl-2-(2-(trifluoromethyl)phenyl)-1H-indole-5-carboxylic acid] | 0.68 ± 0.04 | In % @ 1 μM (mPTPB) (mPTPB): 52% |
| O=C(O)c1cc2c(C=Cc3cccc(C(F)(F)F)c3)c(-c3ccccc3)oc2cc1O [44 (L01X09)] | 1.2 |  |
| Cn1c(-c2ccccc2F)c(I)c2cc(C(=O)O)c(O)cc21 [Compound 207j, 2-(2-fluorophenyl)-6-hydroxy-3-iodo-1-methyl-1H-indole-5-carboxylic acid] | 16 ± 2 |  |

| SMILES | IC50 (mPTPB; [1]) [µM] | also measured |
| --- | --- | --- |
| Cn1c(-c2ccc(-c3ccccc3)cc2)c(I)c2cc(C(=O)O)c(O)cc21 [Compound 207c, 2-([1,1′-biphenyl]-4-yl)-6-hydroxy-3-iodo-1-methyl-1H-indole-5-carboxylic acid] | 2.4 ± 0.2 |  |
| C#Cc1c(-c2cccc(Cl)c2)oc2cc(O)c(C(=O)O)cc12 [42 (Core72)] | 3.1 |  |
| C#Cc1c(-c2ccc(Oc3ccccc3)cc2)oc2cc(O)c(C(=O)O)cc12 [40 (Core69)] | 2.3 |  |
| CC(C)[C@H]1CC[C@H](C)C[C@@H]1OCC(=O)NCCC(=O)c1c(-c2ccccc2C(F)(F)F)n(C)c2cc(O)c(C(=O)O)cc12 [Compound 213c, 6-hydroxy-3-(3-(2-(((1S,2R,5S)-2-isopropyl-5-methylcyclohexyl)oxy)acetamido)propanoyl)-1-methyl-2-(2-(trifluoromethyl)phenyl)-1H-indole-5-carboxylic acid] | 3.3 ± 0.1 | In % @ 1 μM (mPTPB) (mPTPB): 5% |
| C#Cc1c(-c2ccc(OC(F)(F)F)cc2)oc2cc(O)c(C(=O)O)cc12 [35 (Core73)] | 1.71 |  |
| O=C(O)c1cc2c(C#Cc3ccc(Oc4ccccc4)cc3)c(-c3ccccc3)oc2cc1O [34 (L01Z12)] | 0.043 |  |
| Cn1c(-c2ccccc2C(F)(F)F)c(C#Cc2ccccc2C(F)(F)F)c2cc(C(=O)O)c(O)cc21 [Compound 209c, 6-hydroxy-1-methyl-2-(2-(trifluoromethyl)phenyl)-3-((2-(trifluoromethyl)phenyl)ethynyl)-1H-indole-5-carboxylic acid] | 0.3 ± 0.05 |  |
| Cn1c(-c2ccccc2C(F)(F)F)c(C#Cc2ccc(C(F)(F)F)cc2)c2cc(C(=O)O)c(O)cc21 [Compound 209e, 6-hydroxy-1-methyl-2-(2-(trifluoromethyl)phenyl)-3-((4-(trifluoromethyl)phenyl)ethynyl)-1H-indole-5-carboxylic acid] | 0.6 ± 0.1 |  |
| O=C(O)c1cc2c(C#Cc3ccc(Cl)c(Cl)c3)c(-c3ccc(OC(F)(F)F)cc3)oc2cc1O [37 (L73Z02)] | 0.12 |  |
| Cn1c(-c2ccc(C(F)(F)F)cc2)c(I)c2cc(C(=O)O)c(O)cc21 [Compound 207f, 6-hydroxy-3-iodo-1-methyl-2-(4-(trifluoromethyl)phenyl)-1H-indole-5-carboxylic acid] | 7 ± 1 |  |
| CC(=O)NCCC(=O)c1c(-c2ccccc2C(F)(F)F)n(C)c2cc(O)c(C(=O)O)cc12 [Compound 213e, 3-(3-acetamidopropanoyl)-6-hydroxy-1-methyl-2-(2-(trifluoromethyl)phenyl)-1H-indole-5-carboxylic acid] | > 20 | In % @ 1 μM (mPTPB) (mPTPB): 0% |
| Cn1c(-c2ccccc2C(F)(F)F)c(C(=O)CCNC(=O)c2ccc3nc(-c4ccccc4Br)[nH]c3c2)c2cc(C(=O)O)c(O)cc21 [Compound 213d, 3-(3-(2-(2-bromophenyl)-1H-benzo[d]imidazole-6-carboxamido)propanoyl)-6-hydroxy-1-methyl-2-(2-(trifluoromethyl)phenyl)-1H-indole-5-carboxylic acid] | 5.2 ± 0.2 | In % @ 1 μM (mPTPB) (mPTPB): 10% |
| O=C(O)COc1cccc(-c2oc3cc(O)c(C(=O)O)cc3c2C#Cc2cccc(Cl)c2)c1 [49 (Core 74)] | 0.076 | loss of activity compare with compound 133 for Lyp (Lyp): 15 fold |
| Cn1c(-c2cccc(C(F)(F)F)c2)c(I)c2cc(C(=O)O)c(O)cc21 [Compound 207b, 6-hydroxy-3-iodo-1-methyl-2-(3-(trifluoromethyl)phenyl)-1H-indole-5-carboxylic acid] | 2.2 ± 0.2 |  |
| CC(C)c1ccc(NC(=O)COc2cccc(-c3oc4cc(O)c(C(=O)O)cc4c3C#Cc3cccc(Cl)c3)c2)cc1 |  | IC50 (mPTPB; read-out: IC50 for mPTPB): ~0.025 µM |
| C#Cc1c(-c2ccc(-c3ccccc3)cc2)oc2cc(O)c(C(=O)O)cc12 [41 (Core71)] | 0.85 |  |

Reference: patent US9493436B2, “Tyrosine phosphatase inhibitors and uses thereof to modulate the activity of enzymes involved in the pathology of Mycobacterium tuberculosis” (priority 2011, dated 2016)
